Results as given in the NIST ThermoML archive (doi:10.1016/j.jct.2013.09.007).
± gives the expanded uncertainty stated by the source.

Assay: activity coefficient (dimensionless); of the first substance listed, at infinite dilution; xn = mol fraction of the nth substance listed
Conditions: 101 kPa, Liquid, Chromatography, x1 = 0

Row | SMILES | activity coefficient (328.15 K) | activity coefficient (338.15 K) | activity coefficient (348.15 K) | activity coefficient (358.15 K) | activity coefficient (368.15 K) | activity coefficient (308.15 K) | activity coefficient (318.15 K)
1 | Cc1ccccc1C [1,2-dimethylbenzene] + CCCC[n+]1cccc(C)c1.N#C[N-]C#N | 2.47 ± 0.17 | 2.51 ± 0.17 | 2.58 ± 0.18 | 2.64 ± 0.18 | 2.71 ± 0.18 |  | 
2 | Cc1cccc(C)c1 [1,3-dimethylbenzene] + CCCC[n+]1cccc(C)c1.N#C[N-]C#N | 3.01 ± 0.2 | 3.06 ± 0.21 | 3.14 ± 0.21 | 3.2 ± 0.22 | 3.28 ± 0.22 |  | 
3 | Cc1ccc(C)cc1 [1,4-dimethylbenzene] + CCCC[n+]1cccc(C)c1.N#C[N-]C#N | 2.86 ± 0.19 | 2.92 ± 0.2 | 3.02 ± 0.21 | 3.08 ± 0.21 | 3.17 ± 0.22 |  | 
4 | C1COCCO1 [1,4-dioxane] + CCCC[n+]1cccc(C)c1.N#C[N-]C#N |  | 1.01 ± 0.06 | 1.05 ± 0.07 | 1.08 ± 0.07 | 1.11 ± 0.07 |  | 
5 | C=CCCCCCCCC [1-decene] + CCCC[n+]1cccc(C)c1.N#C[N-]C#N | 93.8 ± 6.4 | 88.4 ± 6.1 | 83.2 ± 5.7 | 78.1 ± 5.4 | 73.9 ± 5.1 | 109 ± 7 | 101 ± 7
6 | C=CCCCCC [1-heptene] + CCCC[n+]1cccc(C)c1.N#C[N-]C#N | 29.7 ± 2 | 28.3 ± 1.9 | 27 ± 1.8 | 25.9 ± 1.8 | 24.8 ± 1.7 | 33.1 ± 2.3 | 31.2 ± 2.1
7 | C#CCCCCC [1-heptyne] + CCCC[n+]1cccc(C)c1.N#C[N-]C#N | 6.38 ± 0.43 | 6.48 ± 0.44 | 6.58 ± 0.45 | 6.67 ± 0.45 | 6.78 ± 0.46 | 6.16 ± 0.42 | 6.27 ± 0.43
8 | C#CCCCC [1-hexyne] + CCCC[n+]1cccc(C)c1.N#C[N-]C#N | 4.35 ± 0.3 | 4.45 ± 0.3 | 4.55 ± 0.31 | 4.62 ± 0.31 | 4.72 ± 0.32 | 4.13 ± 0.28 | 4.25 ± 0.29
9 | CCC[N+](=O)[O-] [1-nitropropane] + CCCC[n+]1cccc(C)c1.N#C[N-]C#N |  | 1.13 ± 0.07 | 1.14 ± 0.07 | 1.15 ± 0.07 | 1.15 ± 0.07 |  | 
10 | C#CCCCCCC [1-octyne] + CCCC[n+]1cccc(C)c1.N#C[N-]C#N | 9.42 ± 0.64 | 9.52 ± 0.65 | 9.6 ± 0.65 | 9.68 ± 0.66 | 9.75 ± 0.67 | 9.22 ± 0.63 | 9.32 ± 0.64
11 | C=CCCC [1-pentene] + CCCC[n+]1cccc(C)c1.N#C[N-]C#N | 14.1 ± 1 | 13.7 ± 0.9 | 13.1 ± 0.9 | 12.6 ± 0.9 | 12.2 ± 0.8 | 15.3 ± 1 | 14.7 ± 1
12 | C#CCCC [1-pentyne] + CCCC[n+]1cccc(C)c1.N#C[N-]C#N | 3.05 ± 0.21 | 3.14 ± 0.21 | 3.21 ± 0.22 | 3.28 ± 0.22 | 3.35 ± 0.23 | 2.9 ± 0.2 | 2.97 ± 0.2
13 | CC(C)CC(C)(C)C [2,2,4-trimethylpentane] + CCCC[n+]1cccc(C)c1.N#C[N-]C#N | 85.8 ± 5.9 | 78.3 ± 5.4 | 72.6 ± 5 | 67 ± 4.6 | 61.7 ± 4.2 | 104 ± 7 | 93.3 ± 6.4
14 | CCC(C)(C)C [2,2-dimethylbutane] + CCCC[n+]1cccc(C)c1.N#C[N-]C#N | 47.4 ± 3.2 | 42.9 ± 2.9 | 39.4 ± 2.7 | 36.4 ± 2.5 | 33.6 ± 2.3 | 57.3 ± 3.9 | 52 ± 3.6
15 | CCOC(C)(C)C [2-ethoxy-2-methylpropane] + CCCC[n+]1cccc(C)c1.N#C[N-]C#N | 17 ± 1.2 | 16.7 ± 1.1 | 16.3 ± 1.1 | 15.9 ± 1.1 | 15.6 ± 1.1 | 18 ± 1.2 | 17.5 ± 1.2
16 | CCCCC(C)=O [2-hexanone] + CCCC[n+]1cccc(C)c1.N#C[N-]C#N | 2.44 ± 0.17 | 2.48 ± 0.17 | 2.54 ± 0.17 | 2.59 ± 0.18 | 2.63 ± 0.18 |  | 
17 | CCC(C)(C)OC [2-methoxy-2-methylbutane] + CCCC[n+]1cccc(C)c1.N#C[N-]C#N | 9.59 ± 0.65 | 9.51 ± 0.65 | 9.44 ± 0.64 | 9.35 ± 0.64 | 9.27 ± 0.63 | 9.8 ± 0.67 | 9.71 ± 0.66
18 | COC(C)(C)C [2-methoxy-2-methylpropane] + CCCC[n+]1cccc(C)c1.N#C[N-]C#N | 6.78 ± 0.46 | 6.78 ± 0.46 | 6.79 ± 0.46 | 6.8 ± 0.46 | 6.8 ± 0.46 | 6.76 ± 0.46 | 6.77 ± 0.46
19 | CCCC(=O)CC [3-hexanone] + CCCC[n+]1cccc(C)c1.N#C[N-]C#N |  | 2.77 ± 0.19 | 2.82 ± 0.19 | 2.87 ± 0.2 | 2.89 ± 0.2 |  | 
20 | CCC(C)CC [3-methylpentane] + CCCC[n+]1cccc(C)c1.N#C[N-]C#N | 43.1 ± 3 | 39.8 ± 2.7 | 36.9 ± 2.5 | 34.7 ± 2.4 | 32.4 ± 2.2 | 50.9 ± 3.5 | 47 ± 3.2
21 | C=C(C)c1ccccc1 [(1-methylethenyl)benzene] + CCCC[n+]1cccc(C)c1.N#C[N-]C#N | 2.1 ± 0.14 | 2.21 ± 0.15 | 2.33 ± 0.16 | 2.44 ± 0.17 | 2.55 ± 0.17 |  | 
22 | CC(C)=O [acetone] + CCCC[n+]1cccc(C)c1.N#C[N-]C#N | 0.946 ± 0.06 | 0.968 ± 0.061 | 0.999 ± 0.062 | 1.03 ± 0.06 | 1.04 ± 0.07 |  | 
23 | CC#N [acetonitrile] + CCCC[n+]1cccc(C)c1.N#C[N-]C#N |  | 0.736 ± 0.049 | 0.748 ± 0.049 | 0.76 ± 0.05 | 0.764 ± 0.05 |  | 
24 | c1ccccc1 [benzene] + CCCC[n+]1cccc(C)c1.N#C[N-]C#N | 1.37 ± 0.09 | 1.4 ± 0.09 | 1.43 ± 0.09 | 1.47 ± 0.1 | 1.5 ± 0.1 |  | 
25 | CCCCO [butan-1-ol] + CCCC[n+]1cccc(C)c1.N#C[N-]C#N |  | 0.88 ± 0.056 | 0.855 ± 0.055 | 0.84 ± 0.054 | 0.814 ± 0.053 |  | 
26 | C1CCCCCC1 [cycloheptane] + CCCC[n+]1cccc(C)c1.N#C[N-]C#N | 23.6 ± 1.6 | 22.1 ± 1.5 | 20.7 ± 1.4 | 19.5 ± 1.3 | 18.5 ± 1.3 | 27.3 ± 1.9 | 25.2 ± 1.7
27 | C1CCCCC1 [cyclohexane] + CCCC[n+]1cccc(C)c1.N#C[N-]C#N | 19.8 ± 1.4 | 18.5 ± 1.3 | 17.4 ± 1.2 | 16.5 ± 1.1 | 15.6 ± 1.1 | 23 ± 1.6 | 21.2 ± 1.4
